From US20080051387A1, “TETRAHYDROPYRIDO[3,4-D]PYRIMIDINES AND RELATED ANALOGUES” (priority 2006, published 2008)

Each compound was assayed against T1, chimeric human H3 receptor (Homo sapiens, UniProt Q9Y5N1) (assay: Chimeric human H3 receptor screening GTP binding assay (inhibition of histamine-stimulated GTP-gamma35S binding, Example 8)). Conditions: 1 h; assay described in Example 8; symbol "!" in column headed Ki; read-out: Ki ("!": percent inhibition of agonist-induced GTP-gammaS binding to H3).
T1 construct: rat Galpha-i2 (Gnai2, rat); made in house; host or cells: Sf9 insect cells (baculovirus); P2 membranes
Format: biochemical
Summary of the method: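 Compound tested at 4 μM against 1 μM histamine stimulation; 125 pM GTP-gamma35S binding measured by filtration and scintillation after 60 min at room temperature. Membranes from Sf9 cells expressing chimeric human H3 plus G-protein subunits, in Tris pH 7.4/NaCl/MgCl2/GDP buffer; values are % inhibition after nonspecific subtraction.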

T1 sequence (Q9Y5N1 with tags, fused parts or gaps): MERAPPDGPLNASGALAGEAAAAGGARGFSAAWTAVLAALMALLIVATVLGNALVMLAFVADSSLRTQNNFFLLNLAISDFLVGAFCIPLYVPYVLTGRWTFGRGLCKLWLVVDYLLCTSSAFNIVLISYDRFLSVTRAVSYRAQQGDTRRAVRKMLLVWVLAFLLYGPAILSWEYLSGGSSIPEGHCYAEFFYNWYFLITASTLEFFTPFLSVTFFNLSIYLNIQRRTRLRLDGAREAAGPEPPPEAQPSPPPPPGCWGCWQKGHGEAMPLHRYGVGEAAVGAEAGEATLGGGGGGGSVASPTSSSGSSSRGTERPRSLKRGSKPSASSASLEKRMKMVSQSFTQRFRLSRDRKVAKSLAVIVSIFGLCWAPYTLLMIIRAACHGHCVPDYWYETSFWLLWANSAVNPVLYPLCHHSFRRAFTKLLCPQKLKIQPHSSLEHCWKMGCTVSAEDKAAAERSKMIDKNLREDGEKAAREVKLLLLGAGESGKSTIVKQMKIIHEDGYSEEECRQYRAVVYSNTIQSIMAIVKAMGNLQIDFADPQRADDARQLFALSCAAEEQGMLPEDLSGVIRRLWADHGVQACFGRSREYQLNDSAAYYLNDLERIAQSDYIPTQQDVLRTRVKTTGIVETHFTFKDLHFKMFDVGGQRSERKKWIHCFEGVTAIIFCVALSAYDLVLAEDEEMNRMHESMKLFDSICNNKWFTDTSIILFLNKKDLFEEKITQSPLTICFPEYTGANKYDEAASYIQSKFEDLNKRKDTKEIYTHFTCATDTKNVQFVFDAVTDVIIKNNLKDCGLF

Inhibition at 4 µM, ≥ 90%:
O=C(c1ccc(F)cc1F)N1CCc2cnc(N3CCN(C4CCC4)CC3)nc2CC1 [Compound 392, 2-(4-cyclobutylpiperazin-1-yl)-7-(2,4-difluorobenzoyl)-6,7,8,9-tetrahydro-5H-pyrimido[4,5-d]azepine]
O=C(c1ccc(F)c(Cl)c1)N1CCc2cnc(N3CCN(C4CCC4)CC3)nc2CC1 [Compound 393, 7-(3-chloro-4-fluorobenzoyl)-2-(4-cyclobutylpiperazin-1-yl)-6,7,8,9-tetrahydro-5H-pyrimido[4,5-d]azepine]
Cc1ccc(C(=O)N2CCc3cnc(N4CCN(C5CCC5)CC4)nc3CC2)cc1Cl [Compound 394, 7-(3-chloro-4-methylbenzoyl)-2-(4-cyclobutylpiperazin-1-yl)-6,7,8,9-tetrahydro-5H-pyrimido[4,5-d]azepine]
Cc1cc(C(=O)N2CCc3cnc(N4CCN(C5CCC5)CC4)nc3CC2)ccc1Cl [Compound 395, 7-(4-chloro-3-methylbenzoyl)-2-(4-cyclobutylpiperazin-1-yl)-6,7,8,9-tetrahydro-5H-pyrimido[4,5-d]azepine]
O=C(c1ccc(Cl)c(Cl)c1)N1CCc2cnc(N3CCN(C4CCC4)CC3)nc2CC1 [Compound 396, 2-(4-cyclobutylpiperazin-1-yl)-7-(3,4-dichlorobenzoyl)-6,7,8,9-tetrahydro-5H-pyrimido[4,5-d]azepine]
O=C(c1cccc(C(F)(F)F)c1)N1CCc2cnc(N3CCN(C4CCC4)CC3)nc2CC1 [Compound 397, 2-(4-cyclobutylpiperazin-1-yl)-7-[3-(trifluoromethyl)benzoyl]-6,7,8,9-tetrahydro-5H-pyrimido[4,5-d]azepine]
O=C(c1cc(Cl)cc(Cl)c1)N1CCc2cnc(N3CCN(C4CCC4)CC3)nc2CC1 [Compound 398, 2-(4-cyclobutylpiperazin-1-yl)-7-(3,5-dichlorobenzoyl)-6,7,8,9-tetrahydro-5H-pyrimido[4,5-d]azepine]
O=C(c1cccc(C(F)(F)F)c1F)N1CCc2cnc(N3CCN(C4CCC4)CC3)nc2CC1 [Compound 399, 2-(4-cyclobutylpiperazin-1-yl)-7-[2-fluoro-3-(trifluoromethyl)benzoyl]-6,7,8,9-tetrahydro-5H-pyrimido[4,5-d]azepine]
Cc1ccc(C(=O)N2CCc3cnc(N4CCN(C5CCC5)CC4)nc3CC2)cc1Br [Compound 400, 7-(3-bromo-4-methylbenzoyl)-2-(4-cyclobutylpiperazin-1-yl)-6,7,8,9-tetrahydro-5H-pyrimido[4,5-d]azepine]
O=C(c1ccc(F)c(Br)c1)N1CCc2cnc(N3CCN(C4CCC4)CC3)nc2CC1 [Compound 401, 7-(3-bromo-4-fluorobenzoyl)-2-(4-cyclobutylpiperazin-1-yl)-6,7,8,9-tetrahydro-5H-pyrimido[4,5-d]azepine]
O=C(c1cc(C(F)(F)F)cc(C(F)(F)F)c1)N1CCc2cnc(N3CCN(C4CCC4)CC3)nc2CC1 [Compound 402, 7-[3,5-bis(trifluoromethyl)benzoyl]-2-(4-cyclobutylpiperazin-1-yl)-6,7,8,9-tetrahydro-5H-pyrimido[4,5-d]azepine]
Cc1cccc(C(=O)N2CCc3cnc(N4CCN(C5CCC5)CC4)nc3CC2)c1C [Compound 403, 2-(4-cyclobutylpiperazin-1-yl)-7-(2,3-dimethylbenzoyl)-6,7,8,9-tetrahydro-5H-pyrimido[4,5-d]azepine]
O=C(c1cccc2ccccc12)N1CCc2cnc(N3CCN(C4CCC4)CC3)nc2CC1 [Compound 404, 2-(4-cyclobutylpiperazin-1-yl)-7-(1-naphthoyl)-6,7,8,9-tetrahydro-5H-pyrimido[4,5-d]azepine]
Cc1cc(C)c(C(=O)N2CCc3cnc(N4CCN(C5CCC5)CC4)nc3CC2)c(C)c1 [Compound 405, 2-(4-cyclobutylpiperazin-1-yl)-7-(mesitylcarbonyl)-6,7,8,9-tetrahydro-5H-pyrimido[4,5-d]azepine]
Cc1cccc(C)c1C(=O)N1CCc2cnc(N3CCN(C4CCC4)CC3)nc2CC1 [Compound 406, 2-(4-cyclobutylpiperazin-1-yl)-7-(2,6-dimethylbenzoyl)-6,7,8,9-tetrahydro-5H-pyrimido[4,5-d]azepine]
Cc1ccc(C(=O)N2CCc3cnc(N4CCN(C5CCC5)CC4)nc3CC2)c(C)c1 [Compound 407, 2-(4-cyclobutylpiperazin-1-yl)-7-(2,4-dimethylbenzoyl)-6,7,8,9-tetrahydro-5H-pyrimido[4,5-d]azepine]
CSc1ccccc1C(=O)N1CCc2cnc(N3CCN(C4CCC4)CC3)nc2CC1 [Compound 408, 2-(4-cyclobutylpiperazin-1-yl)-7-[2-(methylthio)benzoyl]-6,7,8,9-tetrahydro-5H-pyrimido[4,5-d]azepine]
O=C(c1ccccc1-c1ccccc1)N1CCc2cnc(N3CCN(C4CCC4)CC3)nc2CC1 [Compound 409, 7-(biphenyl-2-ylcarbonyl)-2-(4-cyclobutylpiperazin-1-yl)-6,7,8,9-tetrahydro-5H-pyrimido[4,5-d]azepine]
O=C(c1ccccc1Cc1ccccc1)N1CCc2cnc(N3CCN(C4CCC4)CC3)nc2CC1 [Compound 410, 7-(2-benzylbenzoyl)-2-(4-cyclobutylpiperazin-1-yl)-6,7,8,9-tetrahydro-5H-pyrimido[4,5-d]azepine]
O=C(c1ccccc1CCc1ccccc1)N1CCc2cnc(N3CCN(C4CCC4)CC3)nc2CC1 [Compound 411, 2-(4-cyclobutylpiperazin-1-yl)-7-[2-(2-phenylethyl)benzoyl]-6,7,8,9-tetrahydro-5H-pyrimido[4,5-d]azepine]
O=C(c1ccccc1OC(F)(F)F)N1CCc2cnc(N3CCN(C4CCC4)CC3)nc2CC1 [Compound 412, 2-(4-cyclobutylpiperazin-1-yl)-7-[2-(trifluoromethoxy)benzoyl]-6,7,8,9-tetrahydro-5H-pyrimido[4,5-d]azepine]
COc1ccc(Br)c(C(=O)N2CCc3cnc(N4CCN(C5CCC5)CC4)nc3CC2)c1 [Compound 413, 7-(2-bromo-5-methoxybenzoyl)-2-(4-cyclobutylpiperazin-1-yl)-6,7,8,9-tetrahydro-5H-pyrimido[4,5-d]azepine]
COc1ccc(Br)c(OC)c1C(=O)N1CCc2cnc(N3CCN(C4CCC4)CC3)nc2CC1 [Compound 414, 7-(3-bromo-2,6-dimethoxybenzoyl)-2-(4-cyclobutylpiperazin-1-yl)-6,7,8,9-tetrahydro-5H-pyrimido[4,5-d]azepine]
CCOc1ccccc1C(=O)N1CCc2cnc(N3CCN(C4CCC4)CC3)nc2CC1 [Compound 415, 2-(4-cyclobutylpiperazin-1-yl)-7-(2-ethoxybenzoyl)-6,7,8,9-tetrahydro-5H-pyrimido[4,5-d]azepine]
CCCOc1ccccc1C(=O)N1CCc2cnc(N3CCN(C4CCC4)CC3)nc2CC1 [Compound 416, 2-(4-cyclobutylpiperazin-1-yl)-7-(2-propoxybenzoyl)-6,7,8,9-tetrahydro-5H-pyrimido[4,5-d]azepine]
CCCCOc1ccccc1C(=O)N1CCc2cnc(N3CCN(C4CCC4)CC3)nc2CC1 [Compound 417, 7-(2-butoxybenzoyl)-2-(4-cyclobutylpiperazin-1-yl)-6,7,8,9-tetrahydro-5H-pyrimido[4,5-d]azepine]
Cc1ccc(Oc2ccccc2C(=O)N2CCc3cnc(N4CCN(C5CCC5)CC4)nc3CC2)cc1 [Compound 418, 2-(4-cyclobutylpiperazin-1-yl)-7-[2-(4-methylphenoxy)benzoyl]-6,7,8,9-tetrahydro-5H-pyrimido[4,5-d]azepine]
O=C(c1ccccc1Oc1ccc(Cl)cc1)N1CCc2cnc(N3CCN(C4CCC4)CC3)nc2CC1 [Compound 419, 7-[2-(4-chlorophenoxy)benzoyl]-2-(4-cyclobutylpiperazin-1-yl)-6,7,8,9-tetrahydro-5H-pyrimido[4,5-d]azepine]
COc1ccc(Cl)cc1C(=O)N1CCc2cnc(N3CCN(C4CCC4)CC3)nc2CC1 [Compound 420, 7-(5-chloro-2-methoxybenzoyl)-2-(4-cyclobutylpiperazin-1-yl)-6,7,8,9-tetrahydro-5H-pyrimido[4,5-d]azepine]
COc1cc(Cl)ccc1C(=O)N1CCc2cnc(N3CCN(C4CCC4)CC3)nc2CC1 [Compound 421, 7-(4-chloro-2-methoxybenzoyl)-2-(4-cyclobutylpiperazin-1-yl)-6,7,8,9-tetrahydro-5H-pyrimido[4,5-d]azepine]
O=C(c1ccccc1Oc1ccccc1)N1CCc2cnc(N3CCN(C4CCC4)CC3)nc2CC1 [Compound 422, 2-(4-cyclobutylpiperazin-1-yl)-7-(2-phenoxybenzoyl)-6,7,8,9-tetrahydro-5H-pyrimido[4,5-d]azepine]
COc1ccc(OC)c(C(=O)N2CCc3cnc(N4CCN(C5CCC5)CC4)nc3CC2)c1 [Compound 423, 2-(4-cyclobutylpiperazin-1-yl)-7-(2,5-dimethoxybenzoyl)-6,7,8,9-tetrahydro-5H-pyrimido[4,5-d]azepine]
